Source: patent US8680282B2, “Cyclic inhibitors of carnitine palmitoyltransferase and treating cancer” (University Health Network, priority 2007, dated 2014)

What was measured:
Experiment in all cases: Cancer cell growth inhibition, SRB assay
H358 = assay type: cell-based, human; design: Percentage of Growth Inhibition: unit not given here; conditions: SRB at Day 6; for Percentage of Growth Inhibition: H358, at 10 μM, NE = no activity at 10 micromolar; for GI50: Homo sapiens, NCI-H358, 144 h, H358 (Lung), triplicate
Procedure: Human cancer cells (MCF-7, H358, H460, HCT116 p53^+/+, HCT116 p53^−/−, A172, PC-3, DU-145 and SW626) were maintained in DMEM medium containing 10% Fetal Bovine Serum (FBS) (Invitrogen, Burlington, ON, Canada) and normal cells HMEC, 184A1, NHBE and PrEC were cultured in MEGM, MEGM plus transferring and cholera toxin, BEGM and PrEGM supplemented with various growth factors (Cambrex, Charles city, Iowa, USA), respectively.
Compounds of Examples S1 to S30, and 4-(carboxymethyl)-4-(6-(3-hexyloxy)phenoxy)hexanoamido)-1,1-dimethylpiperidinium 2,2,2-trifluoroactate (“Compound A”) were tested in this example. Each of the tested compounds was dissolved in DMSO and further diluted in cell culture medium for the experiments performed. Cells were seeded into 96-well plates with 1,500-5,000 cells/well according to cell growth rate. After 24 h, DMEM medium containing 10% FBS were changed to DMEM containing 3% FBS for cancer cells. The compound was added into the cell culture at the indicated concentrations, and the final concentration of DMSO was adjusted to a final concentration of 0.1%. Cell viability was assessed by Sulforhodamine B (SRB) assay at Day 6.
Sulforhodamine B (SRB) (Sigma, Oakville, ON, Canada) is a water-soluble dye that binds to the basic amino acids of the cellular proteins. Thus, colorimetric measurement of the bound dye provides an estimate of the total protein mass that is related to the cell number. The cells were fixed in situ by gently aspirating off the culture media and adding 50 ul of cold 10% Tri-chloroacetic Acid (TCA) per well and incubated at 4° C. for 30-60 min. The plates were washed five times with water and allowed to air dry for 5 min. 50 ul of 0.4% (w/v) SRB dissolved in 1% (v/v) acetic acid were added into each well, plates were then incubated at RT for 30 min for staining, washed four times with 1% acetic acid to remove any unbound dye and then allowed to air dry for 5 min. Stain was solubilized with 100 ul of 10 mM Tris pH 10.5 per well. Absorbance was read at 570 nm on a spectrophotometer. GI50 (compound concentration required for 50% of growth inhibition) was calculated using GraphPad Prism 4.0 software (GraphPad Software, Inc., San Diego, Calif., USA). Growth inhibition (%) was determined as percentage of cells remaining compared to the DMSO-treated cells as control.

MDA-231 = assay type: cell-based, human; conditions: SRB at Day 6; for GI50: Homo sapiens, MDA-MB-231, 144 h, MDA-231 (Breast), triplicate
Hs578T = assay type: cell-based; conditions: Homo sapiens, Hs-578T, 144 h; Hs578T (Breast); SRB at Day 6; triplicate
Caov-3 = assay type: cell-based; conditions: Homo sapiens, 144 h; Caov-3 (Ovarian); SRB at Day 6; triplicate
TOV-21G = assay type: cell-based; conditions: Homo sapiens, TOV21G, 144 h; SRB at Day 6; triplicate
HCT-8 = assay type: cell-based, human; conditions: at 10 μM, SRB at Day 6
H460 = assay type: cell-based, human; conditions: SRB at Day 6; for GI50: Homo sapiens, NCI-H460, 144 h, H460 (Lung), triplicate
Method in brief: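 First, cells are plated according to growth rate and left 24 h; then serum is reduced to 3% FBS in DMEM and compound added (0.1% DMSO). On Day 6 cells are fixed with cold 10% TCA, stained with 0.4% SRB and read at 570 nm.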

SMILES	Percentage of Growth Inhibition (H358)	GI50 (Hs578T) [µM]	GI50 (H358) [µM]	GI50 (Caov-3) [µM]	other results
CCCCCCCCCCc1ccc(C(=O)NC2(CC(=O)O)CC[N+](C)(C)C2)cc1 (centres unmarked) [Example S22, 3-(Carboxymethyl)-3-(4-decylbenzamido)-1,1-dimethylpyrrolidinium 2,2,2-trifluoroacetate]	0.8129	–	–	–	–
C[N+]1(C)CCC(CC(=O)O)(NC(=O)c2ccc(CCc3ccccc3)o2)CC1 [Example S5, 4-(Carboxymethyl)-1,1-dimethyl-4-(5-phenethylfuran-2-carboxamido)-piperidinium 2,2,2-trifluoroacetate]	0.08927	–	–	–	–
CCCCCc1ccc(S(=O)(=O)NC2(CC(=O)O)C[N+](C)(C)C2)cc1 [Example S29, 3-(carboxymethyl)-1,1-dimethyl-3-(4-pentylphenylsulfonamido)-azetidinium 2,2,2-trifluoroacetate]	–	> 50	86	–	GI50 (MDA-231): > 50 µM
CCCCCCCCc1ccc(NS(=O)(=O)NC2(CC(=O)O)CCC[N+](C)(C)C2)cc1 (centres unmarked) [Example S16, 3-(carboxymethyl)-1,1-dimethyl-3-(N-(4-octylphenyl)sulfamoylamino)-piperidinium 2,2,2-trifluoroacetate]	–	17	1.4	2.5	GI50 (MDA-231): 0.5 µM
CCCCCc1ccc(S(=O)(=O)NC2(CC(=O)O)CC[N+](C)(C)CC2)cc1 [Example S4, 4-(Carboxymethyl)-1,1-dimethyl-4-(4-pentylphenylsulfonamido)piperidinium 2,2,2-trifluoroacetate]	–	–	–	–	GI50 (TOV-21G): 44 µM
CCCCCc1ccc(S(=O)(=O)NC2(CC(=O)O)CCN(C)CC2)cc1 [Example S3, 4-(carboxymethyl)-1-methyl-4-(4-pentylphenylsulfonamido)piperidinium 2,2,2-trifluoroacetate]	0.4638	–	–	–	–
CCCCCc1ccc(S(=O)(=O)NC2(CC(=O)O)CN(C)C2)cc1 [Example S27, 3-(carboxymethyl)-1-methyl-3-(4-pentylphenylsulfonamido)azetidinium 2,2,2-trifluoroacetate]	0.07312	–	–	–	Percentage of Growth Inhibition (MDA-231; MDA-231, at 10 μM, NE = no activity at 10 micromolar): 0.1338%; Percentage of Growth Inhibition (HCT-8): 0.09153%; Percentage of Growth Inhibition (H460; H460, at 10 μM, NE = no activity at 10 micromolar): 0.00556%
CCCCCCCCc1ccc(NC(=O)NC2(CC(=O)O)CC[N+](C)(C)CC2)cc1 [Example S2, 4-(Carboxymethyl)-1,1-dimethyl-4-(3-(4-octylphenyl)ureido)piperidinium 2,2,2-trifluoroacetate]	–	50	3.1	–	GI50 (H460): 1.8 µM
O=C(O)CC1(NC(=O)c2ccc(C#Cc3ccccc3)o2)CNC1 [Example S26, 3-(carboxymethyl)-3-(5-(phenylethynyl)furan-2-carboxamido)-azetidinium 2,2,2-trifluoroacetate]	0.1437	–	–	–	–
CCCCCCCCc1ccc(NC(=O)NC2(CC(=O)O)CNC2)cc1 [Example S23, 3-(carboxymethyl)-3-(3-(4-octylphenyl)ureido)azetidinium 2,2,2-trifluoroacetate]	–	45	14	17	–
CCCCCc1ccc(S(=O)(=O)NC2(CC(=O)O)CC[N+](C)(C)C2)cc1 (centres unmarked) [Example S20, 3-(carboxymethyl)-1,1-dimethyl-3-(4-pentylphenylsulfonamido)-pyrrolidinium 2,2,2-trifluoroacetate]	0.2773	–	–	–	–
CCCCCCCCc1ccc(NS(=O)(=O)NC2(CC(=O)O)CCN(C)CC2)cc1 [Example S7, 4-(carboxymethyl)-1-methyl-4-(N-(4-octylphenyl)sulfamoylamino)-piperidinium 2,2,2-trifluoroacetate]	–	> 50	20	22	–
CCCCCCCCc1ccc(NC(=O)NC2(CC(=O)O)CC[N+](C)(C)C2)cc1 (centres unmarked) [Example S18, 3-(carboxymethyl)-1,1-dimethyl-3-(3-(4-octylphenyl)ureido)-pyrrolidinium 2,2,2-trifluoroacetate]	–	26	2.7	–	GI50 (H460): 2.2 µM
C[N+]1(C)CCC(CC(=O)O)(NC(=O)c2ccc(C#Cc3ccccc3)o2)CC1 [Example S6, 4-(Carboxymethyl)-1,1-dimethyl-4-(5-(phenylethynyl)furan-2-carboxamido)-piperidinium 2,2,2-trifluoroacetate]	0.1074	–	–	–	–
CCCCCCCCc1ccc(NC(=O)NC2(CC(=O)O)C[N+](C)(C)C2)cc1 [Example S24, 3-(Carboxymethyl)-1,1-dimethyl-3-(3-(4-octylphenyl)ureido)azetidinium 2,2,2-trifluoroacetate]	–	46	19	45	–
CCCCCCCCCCc1ccc(C(=O)NC2(CC(=O)O)CCN(C)C2)cc1 (centres unmarked) [Example S21, 3-(carboxymethyl)-3-(4-decylbenzamido)-1-methylpyrrolidinium 2,2,2-trifluoroacetate]	0.6802	–	–	–	–
CCCCCCCCc1ccc(N(C)S(=O)(=O)NC2(CC(=O)O)CCC[N+](C)(C)C2)cc1 (centres unmarked) [Example S30, 3-(carboxymethyl)-1,1-dimethyl-3-(N-methyl-N-(4-octylphenyl)-sulfamoylamino)piperidinium 2,2,2-trifluoroacetate]	–	3	2.9	–	–
CCCCCCCCc1ccc(NS(=O)(=O)NC2(CC(=O)O)CC[N+](C)(C)CC2)cc1 [Example S8, 4-(carboxymethyl)-1,1-dimethyl-4-(N-(4-octylphenyl)sulfamoylamino)piperidinium 2,2,2-trifluoroacetate]	–	26	0.9	2	–
CCCCCCCCc1ccc(NC(=O)NC2(CC(=O)O)CCC[N+](C)(C)C2)cc1 (centres unmarked) [Example S10, 3-(carboxymethyl)-1,1-dimethyl-3-(3-(4-octylphenyl)ureido)-piperidinium 2,2,2-trifluoroacetate]	–	39	1	–	–
CCCCCCCCc1ccc(NS(=O)(=O)NC2(CC(=O)O)CCCN(C)C2)cc1 (centres unmarked) [Example S15, 3-(carboxymethyl)-1-methyl-3-(N-(4-octylphenyl)sulfamoylamino)-piperidinium 2,2,2-trifluoroacetate]	–	25	12	4	–
